Test results: US6852863B2, “Metabolites of (3-{[4-tert-butyl-benzyl)-(pyridine-3-sulfonyl)-amino]-methyl}-phenoxy)-acetic acid” (Pfizer Inc., priority 2002, dated 2005)

Experiment: Metabolism of 14C-parent in monkey liver microsomes
Assay type: in vitro ADME
Details: 20 μM 14C-parent, NADPH, 30 minutes, 37° C.; HPLC radiochromatogram peak
Procedure: Human (HL-mix 12), rat, monkey and dog liver microsomes were prepared by differential centrifugation using standard procedures. Prior to use, liver microsomes were thawed on ice and reconstituted using 100 mM potassium phosphate pH 7.4. [^14C]-(3-{[4-tert-butyl-benzyl)-(pyridine-3-sulfonyl)-amino]-methyl}-phenoxy)-acetic acid was dissolved 100 mM potassium phosphate pH 7.4 at a final substrate concentration of 20 μM. Samples were pre-incubated for 3 min with microsomes (CYP 450; 0.5 μM) at 37° C. in a shaking water bath. Incubations were initiated with the addition of 100 μl cofactor (1.1 mM NADPH, 10 mM MgCl2) per 1 ml of incubation mixture. Incubations were stopped after 30 minutes by the addition of an equal volume of cold acetonitrile.
Metabolite quantification was performed by measuring the areas of individually separated HPLC peaks using the β-RAM (IN/US, Win-flow). […]
Identification of the metabolites was performed using a Finnigan TSQ 7000 triple quadrupole mass spectrometer equipped with an API-2 electrospray interface. […] The β-RAM response was recorded as a real time analog signal by the MS data collection system. The collected data from the radioactivity and MS detectors were separated by the dwell volume of flow from the MS to the radioactivity detector (corresponding to a dwell time of about 0.2 min.). […]

Percent of Radioactivity, Monkey liver microsomes: 47.3%
SMILES: CC(C)(CO)c1ccc(CN(Cc2cccc(OCC(=O)O)c2)S(=O)(=O)c2cccnc2)cc1 [Metabolite M4, (3-{[[4-(2-hydroxy-1,1-dimethyl-ethyl)-benzyl]-(pyridine-3-sulfonyl)-amino]-methyl}-phenoxy)-acetic acid]
